{
  "source": "patent US20040151785A1",
  "about": "“Method for treating insulin resistance through hepatic nitric oxide” (DiaMedica Inc., priority 1998, published 2004)",
  "key": {"cats": {"tested_on": "cats", "details": "cited from earlier work"}, "rats [1]": {"tested_on": "rats", "experiment": "Arterial blood pressure monitored via arterial-venous loop during RIST experiments", "format": "in vivo, rat", "details": "after atropine, group given intravenous L-NAME 1.0 mg/kg", "experimental": "(§1) Surgical preparation. The left jugular vein was cannulated for glucose infusion. Spontaneous respiration was allowed through a tracheal tube. The blood samples (25 μl) were obtained through a right femoral arterial-venous loop (30). The right femoral artery was cannulated with the arterial side of the loop. The right femoral vein was cannulated with the venous side of the arterial-venous loop. Arterial blood pressure was monitored via the arterial-venous loop by clamping the silicon sleeve on the venous side of the loop. One of the advantages of using this loop is that blood samples can be taken directly from a moving stream of blood with no need to wash or flush sampling catheters. The arterial blood continuously flows through the loop into the venous side. Intravenous infusions, except glucose, were given through the venous side of the loop. After laparotomy, the portal vein was cannulated with a 24G (OPTIVA™, Johnson & Johnson Medical Inc.) intravenous catheter for intraportal drug administration."}, "rats [2]": {"tested_on": "rats", "experiment": "Rapid insulin sensitivity test (RIST), modified euglycemic clamp, in anesthetized rats", "format": "in vivo, rat", "details": "for inhibition at 50 mg/kg: Rattus norvegicus, iv", "experimental": "as §1, with “loop.” for “loop. After laparotomy, the portal vein was cannulated with a 24G (OPTIVA™, Johnson & Johnson Medical Inc.) intravenous catheter for intraportal drug administration.”"}},
  "note": "Read-outs that look alike come from different tables or passages of the source.",
  "data": [
    {"smiles": "CN1CCN(CC(=O)N2c3ccccc3C(=O)Nc3cccnc32)CC1", "note": "[parenzepine]", "values": [
      {"measurement": "dose achieving a similar degree of insulin resistance", "setting": "cats", "result": "10^−7 mmol/kg"}
    ]},
    {"smiles": "CN1[C@@H]2CC[C@H]1C[C@@H](OC(=O)C(CO)c1ccccc1)C2", "note": "(stereo partly drawn) [atropine]", "values": [
      {"measurement": "blood pressure", "setting": "rats [1]", "result": "93.0±8.6", "unit": "mmHg"}
    ]},
    {"smiles": "COc1ccccc1CNCCCCCCNCCCCCCCCNCCCCCCNCc1ccccc1OC", "note": "[methoctramine]", "values": [
      {"measurement": "dose required to produce a full / similar degree of insulin resistance", "setting": "cats", "result": "10^−8 μmol/kg"}
    ]},
    {"smiles": "N=C(N)NCCC[C@H](N)C(=O)O", "note": "[L-arginine]", "values": [
      {"measurement": "inhibition at 50 mg/kg", "setting": "rats [2]; read-out: inhibition of control RIST", "result": "53.8 ± 7.1", "unit": "%"},
      {"measurement": "inhibition at 50 mg/kg", "setting": "rats [2]; read-out: inhibition of the control response", "result": "48.8 ± 8.2", "unit": "%"}
    ]},
    {"smiles": "[NH-]c1c[n+](N2CCOCC2)no1", "note": "[SIN-1, 3-morpholinosyndnonimine]", "values": [
      {"measurement": "inhibition of the control RIST remaining", "setting": "rats [2]; SIN-1 5.0 mg/kg intraportal after intraportal L-NMMA 0.73 mg/kg, n=5", "result": "24.0±11.6", "unit": "%"},
      {"measurement": "inhibition of the control RIST remaining", "setting": "rats [2]; SIN-1 5.0 mg/kg intravenous after intraportal L-NMMA 0.73 mg/kg, n=4", "result": "59.0±7.2", "unit": "%"},
      {"measurement": "inhibition of the control RIST remaining", "setting": "rats [2]; SIN-1 10.0 mg/kg intraportal after intraportal L-NMMA 0.73 mg/kg, n=5", "result": "0.6±5.8", "unit": "%"},
      {"measurement": "inhibition of the control RIST remaining", "setting": "rats [2]; SIN-1 10.0 mg/kg intraportal after surgical denervation of the hepatic anterior plexus, n=6", "result": "3.8±10.4", "unit": "%"}
    ]}
  ]
}
